Assays:
Format in all cases: functional
Malme-3M = assay: Cytotoxicity against human MALME-3M cells
M14 = assay: Cytotoxicity against human M14 cells
SK-MEL-2 = assay: Cytotoxicity against human SK-MEL-2 cells
SK-MEL-28 = assay: Cytotoxicity against human SK-MEL-28 cells
SK-MEL-5 = assay: Cytotoxicity against human SK-MEL-5 cells
UACC-257 = assay: Cytotoxicity against human UACC257 cells
UACC-62 = assay: Cytotoxicity against human UACC62 cells
IGROV-1 = assay: Cytotoxicity against human IGROV1 cells
OVCAR-3 = assay: Cytotoxicity against human OVCAR-3 cells
OVCAR-4 = assay: Cytotoxicity against human OVCAR4 cells
OVCAR-5 = assay: Cytotoxicity against human OVCAR5 cells
OVCAR-8 = assay: Cytotoxicity against human OVCAR8 cells
SK-OV-3 = assay: Cytotoxicity against human SKOV3 cells
786-0 = assay: Cytotoxicity against human 786-0 cells
A498 = assay: Cytotoxicity against human A498 cells
ACHN = assay: Cytotoxicity against human ACHN cells
CAKI-1 = assay: Cytotoxicity against human Caki1 cells
RXF 393 = assay: Cytotoxicity against human RXF393 cells
SN12C = assay: Cytotoxicity against human SN12C cells
TK-10 = assay: Cytotoxicity against human TK10 cells
UO-31 = assay: Cytotoxicity against human UO31 cells
PC-3 = assay: Cytotoxicity against human PC3 cells
DU-145 = assay: Cytotoxicity against human DU145 cells
MCF7 = assay: Cytotoxicity against human MCF7 cells
[1] = Cytotoxicity against human MCF7/ADR cells; settings: NCI/ADR-RES
MDA-MB-231 = assay: Cytotoxicity against human MDA-MB-231 cells
[2] = Cytotoxicity against human Hs 578T cells
MDA-MB-435 = assay: Cytotoxicity against human MDA-MB-435 cells
MDA-N = assay: Cytotoxicity against human MDA-N cells
BT-549 = assay: Cytotoxicity against human BT549 cells
[3] = read-out: pLC50 (the source's name) (converted)

SMILES: COc1ccc(C(=O)O[C@H]2[C@H](O[C@@H]3[C@@H](OC(C)=O)[C@H](O[C@H]4C[C@H]5[C@@H]6CC=C7C[C@@H](O)CC[C@]7(C)[C@H]6CC[C@]5(C)[C@@]4(O)[C@H](C)C(=O)CCC(C)C)OC[C@@H]3O)OC[C@@H](O)[C@@H]2O)cc1
- GI50 (Malme-3M): 0.631 nM
- CC50 (Malme-3M; [3]): 2400 nM
- TGI (Malme-3M; read-out: pTGI (converted)): 2.29 nM
- GI50 (M14): 0.269 nM
- CC50 (M14; [3]): 51.3 nM
- TGI (M14; read-out: pTGI (converted)): 0.955 nM
- GI50 (SK-MEL-2): 0.347 nM
- CC50 (SK-MEL-2; [3]): 5500 nM
- TGI (SK-MEL-2; read-out: pTGI (converted)): 17 nM
- GI50 (SK-MEL-28): 0.182 nM
- CC50 (SK-MEL-28; [3]): 25.7 nM
- TGI (SK-MEL-28; read-out: pTGI (converted)): 1.1 nM
- GI50 (SK-MEL-5): 0.759 nM
- CC50 (SK-MEL-5; [3]): 282 nM
- TGI (SK-MEL-5; read-out: pTGI (converted)): 43.6 nM
- GI50 (UACC-257): 0.933 nM
- CC50 (UACC-257; [3]): 40.7 nM
- TGI (UACC-257; read-out: pTGI (converted)): 1.29 nM
- GI50 (UACC-62): 0.309 nM
- CC50 (UACC-62; [3]): 3.63 nM
- TGI (UACC-62; read-out: pTGI (converted)): 1.29 nM
- GI50 (IGROV-1): 1.51 nM
- CC50 (IGROV-1; [3]): 6920 nM
- TGI (IGROV-1; read-out: pTGI (converted)): 1910 nM
- GI50 (OVCAR-3): 9.55 nM
- CC50 (OVCAR-3; [3]): 4680 nM
- TGI (OVCAR-3; read-out: pTGI (converted)): 2000 nM
- GI50 (OVCAR-4): 3.63 nM
- CC50 (OVCAR-4; [3]): 5750 nM
- TGI (OVCAR-4; read-out: pTGI (converted)): 2190 nM
- GI50 (OVCAR-5): 50.1 nM
- CC50 (OVCAR-5; [3]): 5890 nM
- TGI (OVCAR-5; read-out: pTGI (converted)): 2000 nM
- GI50 (OVCAR-8): 15.1 nM
- CC50 (OVCAR-8; [3]): 5370 nM
- TGI (OVCAR-8; read-out: pTGI (converted)): 1580 nM
- GI50 (SK-OV-3): 3.98 nM
- CC50 (SK-OV-3; [3]): 10000 nM
- TGI (SK-OV-3; read-out: pTGI (converted)): 1200 nM
- GI50 (786-0): 0.0617 nM
- CC50 (786-0; [3]): 3470 nM
- TGI (786-0; read-out: pTGI (converted)): 1200 nM
- GI50 (A498): 0.24 nM
- CC50 (A498; [3]): 141 nM
- TGI (A498; read-out: pTGI (converted)): 2.19 nM
- GI50 (ACHN): 7.94 nM
- CC50 (ACHN; [3]): 7240 nM
- TGI (ACHN; read-out: pTGI (converted)): 2190 nM
- GI50 (CAKI-1): 1.7 nM
- CC50 (CAKI-1; [3]): 871 nM
- TGI (CAKI-1; read-out: pTGI (converted)): 49 nM
- GI50 (RXF 393): 0.0708 nM
- CC50 (RXF 393; [3]): 407 nM
- TGI (RXF 393; read-out: pTGI (converted)): 18.2 nM
- GI50 (SN12C): 1290 nM
- CC50 (SN12C; [3]): 6760 nM
- TGI (SN12C; read-out: pTGI (converted)): 2880 nM
- GI50 (TK-10): 77.6 nM
- CC50 (TK-10; [3]): 8910 nM
- TGI (TK-10; read-out: pTGI (converted)): 1910 nM
- GI50 (UO-31): 0.617 nM
- CC50 (UO-31; [3]): 30.2 nM
- TGI (UO-31; read-out: pTGI (converted)): 1.41 nM
- GI50 (PC-3): 0.209 nM
- CC50 (PC-3; [3]): 389 nM
- TGI (PC-3; read-out: pTGI (converted)): 1.58 nM
- GI50 (DU-145): 3.71 nM
- CC50 (DU-145; [3]): 4270 nM
- TGI (DU-145; read-out: pTGI (converted)): 1510 nM
- GI50 (MCF7): 0.813 nM
- CC50 (MCF7; [3]): 3630 nM
- TGI (MCF7; read-out: pTGI (converted)): 1200 nM
- GI50 [1]: 24 nM
- CC50 [1, 3]: 6610 nM
- TGI ([1]; read-out: pTGI (converted)): 2000 nM
- GI50 (MDA-MB-231): 19.1 nM
- CC50 (MDA-MB-231; [3]): 5370 nM
- TGI (MDA-MB-231; read-out: pTGI (converted)): 1290 nM
- GI50 [2]: 0.0537 nM
- CC50 [2, 3]: 2000 nM
- TGI ([2]; read-out: pTGI (converted)): 0.741 nM
- GI50 (MDA-MB-435): 0.575 nM
- CC50 (MDA-MB-435; [3]): 407 nM
- TGI (MDA-MB-435; read-out: pTGI (converted)): 8.91 nM
- GI50 (MDA-N): 0.776 nM
- CC50 (MDA-N; [3]): 490 nM
- TGI (MDA-N; read-out: pTGI (converted)): 8.91 nM
- GI50 (BT-549): 1.82 nM

Source: ChEMBL document CHEMBL1150225, “Cytotoxic cholestane glycosides from the bulbs of Ornithogalum saundersiae” (J Nat Prod, 2001)
